Measurements from ChEMBL document CHEMBL3885861, “Open TG-GATES”.

Species on record: Rattus norvegicus
Assay: Open TG-GATES - Regimen: Daily Repeat
Format: toxicity, organism-based, Sprague-Dawley
Set-up: regimen Daily Repeat, gender Male, age 6 weeks
Conditions: in vivo, po, 50 mg/kg, route gavage, dose level Middle; for APTT / Bas / Eos / Fbg / Hb / Ht / Lym / MCHC / MCV / Mono / Neu / PT / Plat / RBC / Ret / WBC: tissue Blood; for KIDNEY_L / KIDNEY_R / KIDNEY_TOTAL: tissue Kidney; for LIVER: tissue Liver; for ALP / ALT / AST / BUN / CRE / Ca / Cl / DBIL / GLC / IP / K / LDH / Na / PL / RALB / TBIL / TC / TG / TP / gamma-GTP: tissue Plasma

C1CCC(C(CC2CCCCN2)C2CCCCC2)CC1 (centres undefined) [PERHEXILINE]
TERMINAL_BW (72 h, time 3 day): 222.3 g | APTT (72 h, time 3 day): 19.9 s | Bas (72 h, time 3 day): 0% | Eos (72 h, time 3 day): 1% | Fbg (72 h, time 3 day): 339.8 mg/dL | Hb (72 h, time 3 day): 13.5 g/dL | Ht (72 h, time 3 day): 40.4% | Lym (72 h, time 3 day): 72.2% | MCHC (72 h, time 3 day): 33.4% | MCV (72 h, time 3 day): 62.8 fL | Mono (72 h, time 3 day): 2.2% | Neu (72 h, time 3 day): 23.2% | PT (72 h, time 3 day): 16.5 s | Plat (72 h, time 3 day): 125.7 x10_4/uL | RBC (72 h, time 3 day): 643.2 x10_4/ul | Ret (72 h, time 3 day): 6.1% | WBC (72 h, time 3 day): 117.4 x10_2/uL | KIDNEY_L (72 h, time 3 day): 1 g | KIDNEY_R (72 h, time 3 day): 1 g | KIDNEY_TOTAL (72 h, time 3 day): 2.1 g | LIVER (72 h, time 3 day): 10.7 g | ALP (72 h, time 3 day): 1647.4 IU/L | ALT (72 h, time 3 day): 40 IU/L | AST (72 h, time 3 day): 70.2 IU/L | BUN (72 h, time 3 day): 13.6 mg/dL | CRE (72 h, time 3 day): 0.1 mg/dL | Ca (72 h, time 3 day): 10.8 mg/dL | Cl (72 h, time 3 day): 107 meq/L | DBIL (72 h, time 3 day): 0 mg/dL | GLC (72 h, time 3 day): 184.8 mg/dL | IP (72 h, time 3 day): 7.6 mg/dL | K (72 h, time 3 day): 4.1 meq/L | LDH (72 h, time 3 day): 241.2 IU/L | Na (72 h, time 3 day): 141.8 meq/L | PL (72 h, time 3 day): 146.8 mg/dL | RALB (72 h, time 3 day): 3 g/dL | TBIL (72 h, time 3 day): 0.008 mg/dL | TC (72 h, time 3 day): 72.8 mg/dL | TG (72 h, time 3 day): 125 mg/dL | TP (72 h, time 3 day): 5.6 g/dL | gamma-GTP (72 h, time 3 day): 0.8 IU/L | TERMINAL_BW ([…], time 7 day): 248.7 g | TERMINAL_BW ([…], time 14 day): 302.3 g | TERMINAL_BW ([…], time 28 day): 361.8 g | APTT ([…], time 7 day): 22.2 s | Bas ([…], time 7 day): 0% | Eos ([…], time 7 day): 0.6% | Fbg ([…], time 7 day): 314 mg/dL | Hb ([…], time 7 day): 14.1 g/dL | Ht ([…], time 7 day): 41.6% | Lym ([…], time 7 day): 79.8% | MCHC ([…], time 7 day): 33.9% | MCV ([…], time 7 day): 62.6 fL | Mono ([…], time 7 day): 1.6% | Neu ([…], time 7 day): 16.6% | PT ([…], time 7 day): 15.8 s | Plat ([…], time 7 day): 113.7 x10_4/uL | RBC ([…], time 7 day): 666.4 x10_4/ul | Ret ([…], time 7 day): 4.7% | WBC ([…], time 7 day): 85.4 x10_2/uL | APTT ([…], time 14 day): 23.1 s | Bas ([…], time 14 day): 0% | Eos ([…], time 14 day): 0.4% | Fbg ([…], time 14 day): 303 mg/dL | Hb ([…], time 14 day): 14 g/dL | Ht ([…], time 14 day): 40.8% | Lym ([…], time 14 day): 82.2% | MCHC ([…], time 14 day): 34.3% | MCV ([…], time 14 day): 61.7 fL | Mono ([…], time 14 day): 1.4% | Neu ([…], time 14 day): 15% | PT ([…], time 14 day): 15.8 s | Plat ([…], time 14 day): 118.8 x10_4/uL | RBC ([…], time 14 day): 662.8 x10_4/ul | Ret ([…], time 14 day): 5.3% | WBC ([…], time 14 day): 116.6 x10_2/uL | APTT ([…], time 28 day): 22.2 s | Bas ([…], time 28 day): 0% | Eos ([…], time 28 day): 0.6% | Fbg ([…], time 28 day): 314 mg/dL | Hb ([…], time 28 day): 14.1 g/dL | Ht ([…], time 28 day): 41.6% | Lym ([…], time 28 day): 79.8% | MCHC ([…], time 28 day): 33.9% | MCV ([…], time 28 day): 62.6 fL | Mono ([…], time 28 day): 1.6% | Neu ([…], time 28 day): 16.6% | PT ([…], time 28 day): 15.8 s | Plat ([…], time 28 day): 113.7 x10_4/uL | RBC ([…], time 28 day): 666.4 x10_4/ul | Ret ([…], time 28 day): 4.7% | WBC ([…], time 28 day): 85.4 x10_2/uL | KIDNEY_L ([…], time 7 day): 1 g | KIDNEY_R ([…], time 7 day): 1 g | KIDNEY_TOTAL ([…], time 7 day): 2.1 g | KIDNEY_L ([…], time 14 day): 1.2 g | KIDNEY_R ([…], time 14 day): 1.2 g | KIDNEY_TOTAL ([…], time 14 day): 2.3 g | KIDNEY_L ([…], time 28 day): 1.3 g | KIDNEY_R ([…], time 28 day): 1.3 g | KIDNEY_TOTAL ([…], time 28 day): 2.5 g | LIVER ([…], time 7 day): 11.3 g | LIVER ([…], time 14 day): 12.9 g | LIVER ([…], time 28 day): 15 g | ALP ([…], time 7 day): 1686.4 IU/L | ALT ([…], time 7 day): 38.8 IU/L | AST ([…], time 7 day): 67 IU/L | BUN ([…], time 7 day): 18 mg/dL | CRE ([…], time 7 day): 0.2 mg/dL | Ca ([…], time 7 day): 10.5 mg/dL | Cl ([…], time 7 day): 106.2 meq/L | DBIL ([…], time 7 day): 0 mg/dL | GLC ([…], time 7 day): 202 mg/dL | IP ([…], time 7 day): 7.3 mg/dL | K ([…], time 7 day): 4.1 meq/L | LDH ([…], time 7 day): 192 IU/L | Na ([…], time 7 day): 142.8 meq/L | PL ([…], time 7 day): 166.2 mg/dL | RALB ([…], time 7 day): 3.1 g/dL | TBIL ([…], time 7 day): 0.004 mg/dL | TC ([…], time 7 day): 78.4 mg/dL | TG ([…], time 7 day): 181 mg/dL | TP ([…], time 7 day): 5.8 g/dL | gamma-GTP ([…], time 7 day): 1 IU/L | ALP ([…], time 14 day): 1470.4 IU/L | ALT ([…], time 14 day): 42.2 IU/L | AST ([…], time 14 day): 76.6 IU/L | BUN ([…], time 14 day): 18.6 mg/dL | CRE ([…], time 14 day): 0.2 mg/dL | Ca ([…], time 14 day): 10.7 mg/dL | Cl ([…], time 14 day): 107.4 meq/L | DBIL ([…], time 14 day): 0 mg/dL | GLC ([…], time 14 day): 209.8 mg/dL | IP ([…], time 14 day): 6.5 mg/dL | K ([…], time 14 day): 4.2 meq/L | LDH ([…], time 14 day): 231.4 IU/L | Na ([…], time 14 day): 143.2 meq/L | PL ([…], time 14 day): 155.2 mg/dL | RALB ([…], time 14 day): 3 g/dL | TBIL ([…], time 14 day): 0.002 mg/dL | TC ([…], time 14 day): 72.2 mg/dL | TG ([…], time 14 day): 178.6 mg/dL | TP ([…], time 14 day): 5.8 g/dL | gamma-GTP ([…], time 14 day): 1.6 IU/L | ALP ([…], time 28 day): 1171.8 IU/L | ALT ([…], time 28 day): 39.8 IU/L | AST ([…], time 28 day): 67.2 IU/L | BUN ([…], time 28 day): 18.8 mg/dL | CRE ([…], time 28 day): 0.2 mg/dL | Ca ([…], time 28 day): 10.4 mg/dL | Cl ([…], time 28 day): 107 meq/L | DBIL ([…], time 28 day): 0 mg/dL | GLC ([…], time 28 day): 209.2 mg/dL | IP ([…], time 28 day): 6.6 mg/dL | K ([…], time 28 day): 4 meq/L | LDH ([…], time 28 day): 186.8 IU/L | Na ([…], time 28 day): 143 meq/L | PL ([…], time 28 day): 156.4 mg/dL | RALB ([…], time 28 day): 3.1 g/dL | TBIL ([…], time 28 day): 0.004 mg/dL | TC ([…], time 28 day): 71.6 mg/dL | TG ([…], time 28 day): 157.4 mg/dL | TP ([…], time 28 day): 6.1 g/dL | gamma-GTP ([…], time 28 day): 1.4 IU/L
